≈ marks a conversion by molar mass, not a printed value. Calls of active or inactive are those of the source. The calls are words filed in the database; no cut-off is given here.

One assay deals with Plasma. The assay is described as follows: Inhibition of beta-hematin formation in Plasmodium yoelii-infected Swiss albino mouse plasma using hemin as substrate after 16 hrs. It counts as functional, cell-free.
Assay [1] has as its system Plasmodium falciparum. As to the kind of experiment: Resistance index, ratio of IC50 for chloroquine-resistant Plasmodium falciparum K1 to IC50 for chloroquine-sensitive Plasmodium falciparum 3D7. In kind it is functional.
A short description of assay [2]: Selectivity index, ratio of CC50 for African green monkey Vero cells to IC50 for Plasmodium falciparum. In kind it is functional.
Assay [3] deals with Plasmodium falciparum. The assay is described as follows: Antimalarial activity against chloroquine-resistant Plasmodium falciparum K1 after 72 hrs by MSF assay. It counts as functional, organism-based. To be noted: K1, 72 h.
The subject of assay [4] is Plasmodium falciparum. The assay is described as follows: Antimalarial activity against chloroquine-sensitive Plasmodium falciparum 3D7 after 72 hrs by MSF assay. It counts as functional, organism-based. To be noted: 3D7, 72 h.
Assay [5] deals with Plasmodium falciparum. The assay is described as follows: Ratio of chloroquine IC50 to compound IC50 for chloroquine-resistant Plasmodium falciparum K1. It counts as functional.
Assay [6] deals with Plasmodium yoelii. As to the kind of experiment: Antimalarial activity against chloroquine-resistant Plasmodium yoelii N-67 infected in Swiss mouse assessed as mean survival time at 50 mg/kg, ip qd for 4 days. It counts as functional. As to conditions: route intraperitoneal.
The subject of assay [7] is Plasmodium yoelii. As to the kind of experiment: Antimalarial activity against chloroquine-resistant Plasmodium yoelii N-67 infected in Swiss mouse assessed as cured animal at 50 mg/kg, ip qd for 4 days measured on day 28 post infection relative to control. It counts as functional.
The test system of assay [8] is Plasmodium yoelii. As to the kind of experiment: Antimalarial activity against chloroquine-resistant Plasmodium yoelii N-67 infected in Swiss mouse assessed as mouse survival at 50 mg/kg, ip qd for 4 days measured on day 28 post infection relative to control. It counts as functional.
Assay [9] deals with Plasmodium yoelii. The assay is described as follows: Antimalarial activity against chloroquine-resistant Plasmodium yoelii N-67 infected in Swiss mouse assessed as suppression of parasitaemia level at 50 mg/kg, ip qd for 4 days relative to control. It counts as functional. As to conditions: route intraperitoneal.

Turning to `CCc1ccc(C(Nc2ccc(Nc3ccnc4cc(Cl)ccc34)cc2)c2nnnn2C(C)(C)C)cc1` (stereo unspecified), the concentration for half-maximal inhibition (IC50) in the assay on Plasma came to 5.95 mg/L (≈ 11.6 µM); in the assay on Plasmodium falciparum [3] it was 0.688 µM; with Plasmodium falciparum [4], 0.0513 µM. Further, the inhibition result in the assay with Plasma is “Dose-dependent effect”. Moreover, the “Ratio IC50” value in the assay on Plasmodium falciparum [1] worked out at 13.4. In assay [2], the “Ratio CC50/IC50” value amounted to 3652.19.
In the case of `Clc1ccc2c(Nc3ccc(NC(c4ccc(Br)cc4)c4nnnn4C4CCCCC4)cc3)ccnc2c1` (stereo unspecified), the “Ratio IC50” value with Plasmodium falciparum [5] was 3.38; in the assay on Plasmodium falciparum [1] it was 0.8. In the assay on Plasmodium yoelii [6], the MST was determined as 12.6 days. The outcome in the assay with Plasmodium yoelii [7] and in the assay on Plasmodium yoelii [8] was inactive. Further, the Activity with Plasmodium yoelii [9] came to 69.56%. Also, the IC50 in the assay on Plasma turned out to be 4.38 mg/L (≈ 7.44 µM); in the assay on Plasmodium falciparum [3] it was 0.0737 µM; in the assay on Plasmodium falciparum [4], 0.0927 µM. In the assay with Plasma, the inhibition result is “Dose-dependent effect”. Further, the “Ratio CC50/IC50” value in assay [2] stood at 1191.58.
As to `CC(C)(C)n1nnnc1C(c1ccc(Cl)cc1)N1CCN(c2ccnc3cc(Cl)ccc23)CC1` (stereo unspecified), the MST in the assay with Plasmodium yoelii [6] was 13 days. The outcome with Plasmodium yoelii [7] and with Plasmodium yoelii [8] was inactive. The Activity in the assay with Plasmodium yoelii [9] is listed as 73.91%. Besides, the IC50 was determined as 5.32 mg/L (≈ 10.7 µM) with Plasma, 0.159 µM in the assay on Plasmodium falciparum [3] and 0.787 µM in the assay with Plasmodium falciparum [4]. Further, the inhibition entry in the assay on Plasma is “Dose-dependent effect”. Further, the “Ratio IC50” value with Plasmodium falciparum [1] amounted to 0.2. The “Ratio CC50/IC50” value in assay [2] was 182.96.
For the molecule `CC(C)(C)n1nnnc1C(Nc1ccc(Nc2ccnc3cc(Cl)ccc23)cc1)c1ccccc1` (stereo unspecified), the figures for the IC50 with Plasma, in the assay with Plasmodium falciparum [3] and in the assay with Plasmodium falciparum [4] were 5.55 mg/L (≈ 11.5 µM), > 1.02 µM and 0.0596 µM, respectively. Also, the inhibition result with Plasma is “Dose-dependent effect”. Besides, the “Ratio CC50/IC50” value in [2] came to 2383.47.
`CC(C)(C)n1nnnc1C(NCCNc1ccnc2cc(Cl)ccc12)c1cccc2ccccc12` (stereo unspecified): the IC50 in the assay on Plasma was 6.33 mg/L (≈ 13 µM); in the assay with Plasmodium falciparum [3], 0.184 µM; in the assay with Plasmodium falciparum [4], 0.12 µM. For the same molecule, in the assay on Plasma, the inhibition result is “Dose-dependent effect”. In addition, the “Ratio IC50” value in the assay on Plasmodium falciparum [1] is recorded as 1.5. For the same molecule, in [2], the “Ratio CC50/IC50” value came to 305.32.
For `COc1ccc(C(Nc2ccc(Nc3ccnc4cc(Cl)ccc34)cc2)c2nnnn2C2CCCCC2)cc1OC` (stereo unspecified), the IC50 was determined as 5.19 mg/L (≈ 9.1 µM) in the assay on Plasma, 0.144 µM with Plasmodium falciparum [3] and 0.853 µM with Plasmodium falciparum [4]. Also, the inhibition entry in the assay with Plasma is “Dose-dependent effect”. For the same molecule, the “Ratio IC50” value in the assay on Plasmodium falciparum [1] is 0.1. Moreover, the “Ratio CC50/IC50” value in [2] is reported as 49.73.
With `Cc1ccc(C(Nc2ccc(Nc3ccnc4cc(Cl)ccc34)cc2)c2nnnn2C(C)(C)C)cc1` (stereo unspecified), the “Ratio IC50” value came to 3.38 in the assay on Plasmodium falciparum [5] and 0.07 in the assay on Plasmodium falciparum [1]. In the assay with Plasmodium yoelii [6], the MST worked out at 11 days. Further, the result in the assay with Plasmodium yoelii [7] and with Plasmodium yoelii [8] was inactive. In addition, in the assay with Plasmodium yoelii [9], the Activity is 21.3%. Besides, the IC50 in the assay on Plasma is 5.39 mg/L (≈ 10.8 µM); in the assay with Plasmodium falciparum [3] it was 0.0754 µM; in the assay on Plasmodium falciparum [4], 1.01 µM. The inhibition entry in the assay on Plasma is “Dose-dependent effect”.
For `COc1ccc(C(Nc2ccc(Nc3ccnc4cc(Cl)ccc34)cc2)c2nnnn2C(C)(C)C)cc1OC` (stereo unspecified), in the assay on Plasmodium yoelii [6], the MST stood at 9.8 days. Besides, the result in the assay with Plasmodium yoelii [7] and with Plasmodium yoelii [8] was inactive. Also, the Activity in the assay with Plasmodium yoelii [9] turned out to be 26.91%. Moreover, the figures for the IC50 with Plasma, in the assay with Plasmodium falciparum [3] and in the assay on Plasmodium falciparum [4] were 5.42 mg/L (≈ 9.96 µM), 0.0762 µM and 0.0706 µM, respectively. Also, the inhibition result with Plasma was “Dose-dependent effect”. Also, the “Ratio IC50” value with Plasmodium falciparum [1] came to 1. In addition, the “Ratio CC50/IC50” value in assay [2] came out at 193.28.
As for `CC(C)(C)n1nnnc1C(Nc1ccc(Nc2ccnc3cc(Cl)ccc23)cc1)c1ccc(F)cc1` (stereo unspecified), the IC50 in the assay on Plasma came to 5.49 mg/L (≈ 10.9 µM); in the assay with Plasmodium falciparum [3], 0.669 µM; with Plasmodium falciparum [4] it was 0.0295 µM. In the assay on Plasma, the inhibition entry is “Dose-dependent effect”. Besides, in the assay on Plasmodium falciparum [1], the “Ratio IC50” value is recorded as 22.67. In [2], the “Ratio CC50/IC50” value amounted to 3165.31.
Take `Clc1ccc(C(Nc2ccc(Nc3ccnc4cc(Cl)ccc34)cc2)c2nnnn2C2CCCCC2)cc1` (stereo unspecified): in the assay on Plasmodium yoelii [6], the MST is 10.4 days. Moreover, the result in the assay with Plasmodium yoelii [7] and with Plasmodium yoelii [8] was inactive. Moreover, the Activity with Plasmodium yoelii [9] is listed as 20.43%. For the same molecule, the IC50 in the assay on Plasma came to 3.81 mg/L (≈ 7 µM); with Plasmodium falciparum [3], 0.139 µM; with Plasmodium falciparum [4] it was 0.156 µM. In addition, the inhibition result with Plasma is “Dose-dependent effect”. Besides, the “Ratio IC50” value in the assay with Plasmodium falciparum [1] is listed as 0.9. The “Ratio CC50/IC50” value in assay [2] is given as 694.18.
As to `CC(C)(C)n1nnnc1C(NCCNc1ccnc2cc(Cl)ccc12)c1ccc(Cl)cc1` (stereo unspecified), the IC50 in the assay on Plasma was 6.15 mg/L (≈ 13.1 µM); in the assay with Plasmodium falciparum [3] it was 0.278 µM; in the assay with Plasmodium falciparum [4] it was 0.0239 µM. Besides, the inhibition entry in the assay on Plasma was “Dose-dependent effect”. For the same molecule, in the assay on Plasmodium falciparum [1], the “Ratio IC50” value turned out to be 11.6. In addition, the “Ratio CC50/IC50” value in assay [2] was 839.68.
Turning to `COc1cc(C(Nc2ccc(Nc3ccnc4cc(Cl)ccc34)cc2)c2nnnn2C(C)(C)C)cc(OC)c1OC` (stereo unspecified), the results for the IC50 with Plasma, with Plasmodium falciparum [3] and in the assay with Plasmodium falciparum [4] were 5.65 mg/L (≈ 9.84 µM), 0.573 µM and 0.0542 µM, respectively. Also, the inhibition result in the assay with Plasma is “Dose-dependent effect”. Moreover, the “Ratio IC50” value in the assay on Plasmodium falciparum [1] was 10.5. Further, the “Ratio CC50/IC50” value in assay [2] is listed as 300.57.
As to `COc1ccc(C(NCCCNc2ccnc3cc(Cl)ccc23)c2nnnn2C(C)(C)C)cc1OC` (stereo unspecified), the IC50 was determined as 5.5 mg/L (≈ 10.8 µM) in the assay with Plasma, 0.138 µM in the assay with Plasmodium falciparum [3] and 0.0579 µM with Plasmodium falciparum [4]. Further, the inhibition result with Plasma is “Dose-dependent effect”. Further, the “Ratio IC50” value in the assay on Plasmodium falciparum [1] was 2.3. For the same molecule, the “Ratio CC50/IC50” value in [2] stood at 1662.92.
Turning to `CC(C)(C)n1nnnc1C(NCCCNc1ccnc2cc(Cl)ccc12)c1ccc(Cl)cc1` (stereo unspecified), the IC50 in the assay with Plasma was 5.95 mg/L (≈ 12.3 µM); in the assay on Plasmodium falciparum [3], 0.755 µM; in the assay with Plasmodium falciparum [4], 0.0814 µM. The inhibition entry in the assay on Plasma is “Dose-dependent effect”. In addition, the “Ratio IC50” value with Plasmodium falciparum [1] is reported as 9.2. Besides, the “Ratio CC50/IC50” value in assay [2] is 248.65.
As for `CC(C)(C)n1nnnc1C(NCCCNc1ccnc2cc(Cl)ccc12)c1cccc2ccccc12` (stereo unspecified), the results for the IC50 in the assay on Plasma, with Plasmodium falciparum [3] and with Plasmodium falciparum [4] were 4.45 mg/L (≈ 8.9 µM), 0.17 µM and 0.216 µM, respectively. In addition, the inhibition result in the assay on Plasma is “Dose-dependent effect”. In the assay with Plasmodium falciparum [1], the “Ratio IC50” value is reported as 0.8. The “Ratio CC50/IC50” value in [2] is listed as 58.67.
With `COc1ccc(C(Nc2ccc(Nc3ccnc4cc(Cl)ccc34)cc2)c2nnnn2C(C)(C)C)cc1` (stereo unspecified), the IC50 in the assay with Plasma was 5.55 mg/L (≈ 10.8 µM); in the assay on Plasmodium falciparum [3] it was 0.384 µM; in the assay on Plasmodium falciparum [4], 0.0577 µM. Moreover, the inhibition entry in the assay on Plasma was “Dose-dependent effect”. In the assay on Plasmodium falciparum [1], the “Ratio IC50” value is given as 6.6. For the same molecule, the “Ratio CC50/IC50” value in [2] is given as 702.34.
As to `CC(C)(C)n1nnnc1C(Nc1ccc(Nc2ccnc3cc(Cl)ccc23)cc1)c1ccc(Cl)c(Cl)c1` (stereo unspecified), in the assay on Plasmodium yoelii [6], the MST turned out to be 16.83 days. Besides, the result with Plasmodium yoelii [7] and in the assay on Plasmodium yoelii [8] was inactive. The Activity in the assay on Plasmodium yoelii [9] was found to be 71.49%. The IC50 came to 5.4 mg/L (≈ 9.77 µM) with Plasma, 0.142 µM with Plasmodium falciparum [3] and 0.011 µM in the assay on Plasmodium falciparum [4]. The inhibition result with Plasma was “Dose-dependent effect”. Moreover, in the assay on Plasmodium falciparum [1], the “Ratio IC50” value stood at 12.8. Further, the “Ratio CC50/IC50” value in assay [2] was determined as 7076.29.

The IC50 is the concentration that inhibits the measured activity by half.

Values taken from ChEMBL document CHEMBL2413038, “Synthesis and bioevaluation of novel 4-aminoquinoline-tetrazole derivatives as potent antimalarial agents” (Eur J Med Chem, 2013).
